From patent US20250009844A1, “MATURATION OF MUCOSAL DEFENSE AND GUT/LUNG FUNCTION IN THE PRETERM INFANT” (Novozymes A/S, priority 2017, published 2025)
Entries after “also recorded” stand apart in the source; their conditions may differ. No end group written: not given here.

Legend:
[1] = Therapeutic high fat diet model in diet-induced obese mice, weight and fat percentage (Example 2); format: in vivo; details: HFD plus hBD-2 vs standard HFD
Source text: The overall design of the study is shown in FIG. 1, lower panel, “Therapeutic study”. Mice and diets. The experiment elucidates the effect of hBD-2 and HD5 on the microbiota in diet-induced obese mice. A run-in period of 13 weeks where mice were fed a very HFD (60% energy from fat) preceded the intervention. Only mice meeting the criteria of a minimum of 12 gram weight gain (approximately 50% of initial bodyweight) during the run-in period were included in the final analyses. […] They were exposed to all experimental tests, but excluded from the analyses.
Treatment regimen. Before the intervention all mice were MR scanned. Cages of mice were allocated to experimental groups based on their fat mass. All subsequent measures were paired with data from the same mouse before the intervention. A LFD (low fat diet) reference group was running in parallel. As controls for the intervention 2 additional groups were included: a) very HFD and b) LFD. Experimental mice stayed on the very HFD during the intervention. The mice were on the experimental diet for 10 weeks. They were co-housed throughout the experiment, 4 mice per cage, 3 cages per group. All tests ran over 3 days, 1 cage per group per day.

[2] = Prophylactic high fat diet murine model, weight change (Example 1); format: in vivo, mice; details: HFD plus hBD-2 1,2 mg per kg per day in diet vs HFD reference group; 10 week study period; p=0.0028
Source text: The overall experimental design is shown in FIG. 1, top panel “Prophylactic study”. Mice: Mice were housed in trios, 4 cages per group. Feed intake was registered daily just before lights were turned off at 6 pm. Individual mice were subjected to experimental procedures in altered order both group and cage wise. Mice were kept at room temperature under a 12-hour light/dark cycle at SPF standard conditions. Diets: For dosing, the average weight was estimated to be 25 grams per mouse. Mice eat approximately 3 grams of feed per mouse per day.
Treatment regime: Mice were fed either a high fat diet (HFD) or a low fat (LF) control diet. The HFD contained 4 subgroups; a) hBD-2, b) HD5, c) hBD-2/HD5 and d) standard HFD without supplementation of defensins. Defensin concentration was 1,2 mg hBD-2 per kg mouse per day. HD5 was given in equimolar concentration to hBD-2.

BALB/c mice = assay: Murine model of acute graft versus host disease, oral HD5 (Example 13); format: in vivo
Procedure: Treatment regime: 22 female BALB/c mice were irradiated with 4.5 Gy (2×498 sec) at intervals of at least 4 hours on day 0. Bone marrow was harvested: hind limbs harvested from 2 female WT C57BL/6 mice aseptically. Skeletal muscle was removed and epiphysis cut away. Lumen of bone flushed with PBS and cells pelleted and taken up. Harvest of T-cells: spleens from 2 female WT C57BL/6 mice were meshed through a […] cell strainer into a PBS filled dish. Cells were taken up in PBS and transferred into a 50 mL falcon tube and spun down. Cells were taken up in 1 mL PBS and 20 μL of CD4 microbead +20 μL CD8 microbeads per spleen added for incubation for 20 min at 4 degrees C. Cells were washed with PBS and applied to MACS separation in order to positively select CD4+ and CD8+ cells. Positively selected T-cells were counted and taken up. Transplantation: directly after the second irradiation, all WT BALB/c recipient mice were injected with 5×1.000.000 BM cells (50 μL) i.v. into the retroorbital venous plexus under isoflurane anesthesia. 22 BALB/c mice were treated with 1.2 mg of HD5/kg BW/day; 1.2 mg of hBD-2/kg BW/day or 100 μL of PBS per day vial oral gavage from day 0-10.
Survival was monitored for 60 days.

[3] = tested on: postnatal day 14 C57BL/6J mice; assay: Dithizone/Klebsiella induced necrotizing enterocolitis murine model (Example 9); format: in vivo
Source text: FIG. 40. Histological scoring system for evaluation of severity of necrotizing enterocolitis in a murine model of Klebsiella/Dithizone induced necrotizing enterocolitis. >2 indicates significant gut inflammation.
Incidence of necrotizing enterocolitis and IL-22 concentration in a murine model of necrotizing enterocolitis. Intestinal mucosal injury consistent with human necrotizing enterocolitis was induced by a combination of Dithizone followed by Klebsiella pneumonia challenge by oral gavage in postnatal day 14 C57BL/6J mice. The severity of necrotizing enterocolitis was assessed by a histological scoring system with a score of >2 indicating significant damage (FIG. 40). Neither Dithizone nor K. pneumonia challenge induced mucosal injury by themselves, but the combination of Dithizone followed by K. pneumonia challenge induced severe and statistically significant mucosal damage measured 16 hours post challenge (FIG. 41).

With “human beta defensin 2 (GIGDPVTCLKSGAICHPVFCPRRYKQIGTCGLPGTKCCKKP; ends and bridges not checked; cysteine pairing not given here; listed as Homo sapiens) [hBD-2]” the Weight gain ([1]; first 4 weeks post dietary intervention, p=0.07) was “tended to gain less weight the first 4 weeks post dietary intervention, although not significant”, the Weight gain ([1]; from week 4 to the end of the study period, p=0.82) was “gained similar weight as the standard HFD group” and the Weight gain [2] was “gained significantly less weight than the HFD reference group”. The “Animals that had died by day 60” value (BALB/c mice; 1.2 mg/kg BW/day oral gavage day 0-10, HD5 group of 8, PBS six out of eight died) was “none”, the Mortality (BALB/c mice; 22 mice, oral treatment for 10 days) was “significant reduction of mortality” and the “Concentration of IL-22” value ([3]; 1.2 mg/kg one hour post challenge, 9 hours post challenge) was “statistically significant gut mucosa protective increase of IL-22; also recorded: statistically significantly increased”. For the same substance, the “Incidence of necrotizing enterocolitis (histological score >2)” value ([3]; oral 1.2 mg/kg one dose one hour post K. pneumonia challenge, 16 hours post challenge) was “statistically significant reduction of the incidence of necrotizing enterocolitis; also recorded: dramatically and statistically significantly reduced the incidence of necrotizing enterocolitis to normal”.
